We go through one compound from patent US12331042B2, “Compounds suitable for the treatment and prophylaxis of muscle wasting and other conditions” (priority 2019, dated 2025).

“Also recorded” adds a separate entry of the source.

Assay [1] deals with diaphragm fiber bundle of MCT mice. Nature of the assay: Contractile function of diaphragm fiber bundles, MCT mice. The format is in vivo. The note with it: MCT mice fed compound vs MCT; MCT impairs by around 20% vs sham. The procedure:
To provide a direct functional assessment, the contractility in skeletal muscle fiber bundles, i.e. fibre bundle from the diaphragm of MCT mice and CIF mice, was measured as follows. A fiber bundle from the diaphragm was isolated to allow in vitro contractile function to be assessed using a length-controlled lever system (301B, Aurora Scientific Inc., Aurora, Canada), as described by Bowen et al., FASEB J, 2017, 31. Briefly, a muscle bundle was mounted vertically in a buffer-filled organ bath (˜22° C.), set at optimal length, and after 15 min was stimulated over a force-frequency protocol between 1-300 Hz (600 mA; 500 ms train duration; 0.25 ms pulse width). […] Shortening velocity was determined 10 ms after the first change in length and on the linear section of the transient (DMA software, Aurora Scientific). Force (N) was normalized to muscle cross-sectional area (CSA; cm^2) by dividing muscle mass (g) by the product of Lo (cm) and estimated muscle density (1.06), which allowed specific force in N/cm^2 to be calculated. Shortening velocity was normalized to optimal muscle length (in Lo/s), while power was calculated for each load as the product of shortening velocity and specific force (in W/cm^2).

For assay [2], the system named is MuRF1 mRNA in C2C12 myotubes. The assay is described as follows: MuRF1 mRNA in C2C12 myotubes treated with dexamethasone (RT-PCR). The format is cell-based, Murine. To be noted: pre-treatment at 0.1 μmol/L and 10 μmol/L, then 24 h dexamethasone 10 μmol/L. As for the experimental part: Murine C2C12 myoblasts (CRL-1772, ATCC) were cultured in DMEM (Lonza; Basel, Switzerland) supplemented with 10% fetal calf serum (FCS; Gibco®Invitrogen, Carlsbad, CA). For induction of differentiation into myotubes, subconfluent cultures were switched to DMEM containing 2% horse serum (Sigma-Aldrich; Seelze, Germany). Myotubes were subsequently pre-treated for 2 h with increasing compound concentrations (0.1 to 10 μmol/L, dissolved in DMSO) or with an equal volume of DMSO before treatment for 24 h with 10 μmol/L dexamethasone (DEX; Sigma-Aldrich; Seelze, Germany). Myotube diameter was then evaluated by image analysis software (Analysis 3.0, Olympus Soft Imaging Solutions GmbH, Munster, Germany). To determine cytotoxicity of selected compounds, myoblasts or myotubes were incubated with increasing concentrations for 24 h. Subsequently, the concentration of lactate dehydrogenase (LDH) activity was quantified in the cell culture supernatant as a measure for cell destruction as described in Bellocci et al., Anal Biochem, 2008, 374, 48-55.
After the incubation period, Total RNA was isolated from C2C12 cells and reverse transcribed into cDNA using random hexamers and Sensiscript reverse transcriptase (Qiagen, Hilden, Germany). An aliquot of the cDNA was used for quantitative RT-PCR, applying the Light Cycler system (Roche Diagnostics, Mannheim, Germany). […]

Assay [3] deals with monocrotaline (MCT)-treated C57BL/6 mice. Nature of the assay: Pulmonary hypertension mouse model, test series 1. The class given is in vivo. The note with it: MCT+compound chow vs MCT. As for the experimental part:
The animal experiments were approved by the Regierungspräsidium Karlsruhe (35-9185.81/G-141/13) and the Regierungspräsidium Leipzig (TVV 40/16). Three groups of mice were included in this study, including: 1) saline-treated (sham; n=20); 2) monocrotaline (MCT)-treated fed normal chow (MCT; n=27); and 3) MCT-treated fed MuRF1 inhibitor chow (MCT+compound; n=27). Briefly, C57BL/6 mice (aged 8 weeks) were subcutaneously injected weekly with either MCT (600 mg/kg) or a matched volume of saline for 6 weeks, a time period where MCT is known to induce cardiac cachexia due to pulmonary hypertension and subsequent RV dysfunction rather than anorexia, as described by Ahn et al., PLoS One, 2013, 8:e62702. Mice were exposed to identical conditions under a 12:12 h light/dark cycle with food and water provided ad libitum. The MCT+compound group started receiving the inhibitor chow 1 week prior to the MCT injections, whereas the sham and MCT groups were fed an identical chow but without the addition of the selected compound. Body weight was recorded every week for each mouse. […]
For histological evaluation, paraffin-embedded TA muscle sections (3 μm) were stained with H&E and fiber cross-sectional area (CSA) and then evaluated by imaging software (Analysis 3.0, Olympus Soft Imaging Solutions GmbH, Munster, Germany). […]

Take `Cc1cc(=O)oc2cc(OCc3ccc(C(=O)OCC(=O)NC(=O)NCc4ccco4)cc3)ccc12` [MyoMed-946, [2-(2-furylmethylcarbamoylamino)-2-oxo-ethyl] 4-[(4-methyl-2-oxo-chromen-7-yl)oxymethyl]benzoate]: in assay [1], the “contractile dysfunction of the diaphragm (shortening velocity and power)” value is given as “essentially prevented”. Besides, the “expression of MuRF1 at the mRNA level” value in assay [2] is “reduced MuRF1 mRNA levels; also recorded: prevented”. Also, in assay [3] (6 weeks MCT), the right ventricle hypertrophy result is “attenuated; also recorded: attenuates the development of right ventricle hypertrophy”. In addition, the “loss of skeletal muscle mass (EDL, soleus, TA wet weight, TA fiber CSA)” value in assay [3] (most obvious effect in TA muscle) is “protected”.
